Source: EPA's ToxRefDB 2

Key:
[1] = test system: mouse; details: Prenatal developmental toxicity study; swiss albino; Oral; Gavage/Intubation; dose end: 15 GD; group: developmental; systemic / in life observation / body weight / fetal weight
[2] = test system: rat; details: Multigenerational reproductive toxicity study, sprague dawley, Oral, Feed, dose end: 2 generation
[3] = test system: rat; details: Combined chronic toxicity/carcinogenicity, other, Oral, Feed, dose end: 104 week, group: systemic
[4] = test system: dog; details: Subchronic oral toxicity in nonrodent, beagle, Feed, dose end: 13 week, group: systemic
[5] = test system: dog; details: Chronic toxicity, beagle, Oral, Feed, dose end: 52 week, group: systemic
[6] = test system: mouse; details: Carcinogenicity; cd1; Oral; Feed; dose end: 104 week; group: systemic; systemic / pathology gross / liver / mass + systemic / pathology gross / liver / nodule(s) + systemic / pathology microscopic / liver / …
[7] = test system: rat; details: Combined chronic toxicity/carcinogenicity, other, Oral, Feed, dose end: 25 month, group: systemic
[8] = test system: rat; details: Subchronic oral toxicity in rodents, other, Feed, dose end: 90 day, group: systemic
[9] = test system: rabbit; details: Prenatal developmental toxicity study, new zealand white, Oral, Gavage/Intubation, dose end: 28 GD
[10] = test system: rat; details: Prenatal developmental toxicity study, other, Oral, Gavage/Intubation, dose end: 16 GD
[11] = test system: dog; details: Subchronic oral toxicity in nonrodent, beagle, Feed, dose end: 13 week, group: systemic; remark: listed apart in the source
[12] = test system: rat; details: Prenatal developmental toxicity study, sprague dawley, Oral, Gavage/Intubation, dose end: 15 GD
[13] = test system: rat; details: Subchronic oral toxicity in rodents, sprague dawley, Feed, dose end: 13 week, group: systemic, systemic / hematology / leukocyte (wbc) count differential / leukocyte (wbc) + systemic / in life observation / body weight / body weight …
[14] = test system: rat; details: Combined chronic toxicity/carcinogenicity, sprague dawley, Oral, Feed, dose end: 104 week, group: systemic
[15] = test system: dog; details: Chronic toxicity; beagle; Oral; Feed; dose end: 12 month; group: systemic; systemic / hematology / erythrocyte (rbc) count differential / erythrocyte (rbc) + systemic / hematology / hematocrit (hct) / hematocrit (…
[16] = test system: mouse; details: Combined chronic toxicity/carcinogenicity, cd1, Oral, Feed, dose end: 95 week, group: systemic
[17] = test system: rabbit; details: Prenatal developmental toxicity study, new zealand white, Oral, Gavage/Intubation, dose end: 19 GD
[18] = group: offspring, systemic / in life observation / body weight / offspring (pup) weight
[19] = group: parental, systemic / in life observation / body weight / body weight + systemic / in life observation / body weight / body weight gain
[20] = systemic / in life observation / body weight / body weight + systemic / in life observation / food consumption / food efficiency
[21] = systemic / in life observation / body weight / body weight + systemic / in life observation / food consumption / food efficiency + systemic…
[22] = systemic / organ weight / liver / absolute
[23] = systemic / clinical chemistry / alkaline phosphatase (alp/alk) / alkaline phosphatase (alp/alk) + systemic / pathology microscopic / liver…
[24] = group: developmental, systemic / in life observation / body weight / fetal weight
[25] = group: maternal, reproductive / reproductive performance / aborted / aborted + systemic / in life observation / body weight / body weight gain + systemic / …
[26] = group: developmental, developmental / developmental malformation / bone / misaligned + developmental / developmental malformation / kidney / absent renal papilla…
[27] = group: maternal, systemic / in life observation / body weight / body weight gain + systemic / in life observation / food consumption / food consumption + …
[28] = systemic / clinical chemistry / alkaline phosphatase (alp/alk) / alkaline phosphatase (alp/alk) + systemic / clinical chemistry / aspartate …
[29] = systemic / organ weight / heart / absolute
[30] = group: developmental, developmental / developmental malformation / bone / unossified
[31] = group: developmental, developmental / developmental malformation / bone / unossified + developmental / developmental malformation / bone / incomplete ossification…
[32] = group: maternal, systemic / in life observation / body weight / body weight + systemic / in life observation / body weight / body weight gain + systemic / in…
[33] = systemic / hematology / leukocyte (wbc) count differential / leukocyte (wbc) + systemic / pathology microscopic / liver / adenoma/carcinoma …
[34] = systemic / in life observation / body weight / body weight + systemic / in life observation / body weight / body weight gain + systemic / in…
[35] = group: developmental, developmental / developmental malformation / other / other + systemic / in life observation / body weight / fetal weight + developmental / …
[36] = group: maternal, systemic / in life observation / body weight / body weight gain + systemic / in life observation / clinical signs / no feces + systemic / in…
[37] = group: maternal, systemic / in life observation / clinical signs / no feces + systemic / in life observation / clinical signs / soft stools

## Nc1ccn([C@H]2CC[C@@H](CO)O2)c(=O)n1 [2',3'-Dideoxycytidine]
[1]
  LEL: 500 mg/kg/day
  LOAEL: > 500 mg/kg/day
  NEL: 200 mg/kg/day
  NOAEL: ≥ 500 mg/kg/day

## CN(C)c1nc(=O)n(C2CCCCC2)c(=O)n1C [Hexazinone]
[2]; [18]
  LEL: 154 mg/kg/day
  LOAEL: 180 mg/kg/day
  NEL: 15.3 mg/kg/day
  NOAEL: 17.7 mg/kg/day
[2]; [19]
  LEL: 143 mg/kg/day
  LOAEL: 143 mg/kg/day
  NEL: 14.3 mg/kg/day
  NOAEL: 14.3 mg/kg/day
[3]; [20]
  LOAEL: 50 mg/kg/day
[3]; [21]
  LEL: 50 mg/kg/day
  NEL: 10 mg/kg/day
  NOAEL: 10 mg/kg/day
[4]; systemic / clinical chemistry / alkaline phosphatase (alp/alk) / alkaline phosphatase (alp/alk) + systemic / in life observation / body …
  LOAEL: 122 mg/kg/day
[4]; [22]
  LEL: 5.1 mg/kg/day
  NEL: < 5.1 mg/kg/day
[4]; systemic / organ weight / liver / absolute + systemic / clinical chemistry / alkaline phosphatase (alp/alk) / alkaline phosphatase (alp/alk…
  NOAEL: 25.9 mg/kg/day
[5]; [23]
  LOAEL: 37.6 mg/kg/day
  NEL: 4.97 mg/kg/day
  NOAEL: 4.97 mg/kg/day
[5]; systemic / pathology microscopic / liver / lesion(s) (nos) + systemic / pathology microscopic / liver / pigmentation
  LEL: 37.6 mg/kg/day
[6]
  LEL: 366 mg/kg/day
  LOAEL: 366 mg/kg/day
  NEL: 28 mg/kg/day
  NOAEL: 28 mg/kg/day
[7]; [20]
  LOAEL: 53.4 mg/kg/day
[7]; [21]
  LEL: 53.4 mg/kg/day
  NEL: 10.2 mg/kg/day
  NOAEL: 10.2 mg/kg/day
[8]; [20]
  LOAEL: 440 mg/kg/day
[8]; [21]
  LEL: 440 mg/kg/day
  NEL: 81 mg/kg/day
  NOAEL: 81 mg/kg/day
[9]; [24]
  LEL: 125 mg/kg/day
  LOAEL: 125 mg/kg/day
  NEL: 50 mg/kg/day
  NOAEL: 50 mg/kg/day
[9]; [25]
  LEL: 125 mg/kg/day
  LOAEL: 125 mg/kg/day
  NEL: 50 mg/kg/day
  NOAEL: 50 mg/kg/day
[10]; [26]
  LEL: 900 mg/kg/day
  LOAEL: 900 mg/kg/day
  NEL: 400 mg/kg/day
  NOAEL: 400 mg/kg/day
[10]; group: maternal, systemic / in life observation / body weight / body weight gain + systemic / in life observation / food consumption / food consumption
  LOAEL: 400 mg/kg/day
[10]; [27]
  LEL: 400 mg/kg/day
  NEL: 100 mg/kg/day
  NOAEL: 100 mg/kg/day

## CCNc1nc(Cl)nc(NCC)n1 [Simazine]
[11]; [28]
  LOAEL: 64.3 mg/kg/day
  NOAEL: 8.2 mg/kg/day
[11]; [29]
  LEL: 6.9 mg/kg/day
  NEL: < 6.9 mg/kg/day
[12]; [30]
  LEL: 30 mg/kg/day
  NEL: < 30 mg/kg/day
[12]; [31]
  LOAEL: 300 mg/kg/day
  NOAEL: 30 mg/kg/day
[12]; [32]
  LEL: 300 mg/kg/day
  LOAEL: 300 mg/kg/day
  NEL: 30 mg/kg/day
  NOAEL: 30 mg/kg/day
[13]
  LEL: 12.6 mg/kg/day
  LOAEL: 12.6 mg/kg/day
  NEL: < 12.6 mg/kg/day
  NOAEL: < 12.6 mg/kg/day
[14]; systemic / hematology / leukocyte (wbc) count differential / leukocyte (wbc)
  LOAEL: 4.17 mg/kg/day
[14]; systemic / hematology / leukocyte (wbc) count differential / leukocyte (wbc) + systemic / in life observation / body weight / body weight …
  LEL: 4.17 mg/kg/day
[14]; [33]
  NEL: 0.41 mg/kg/day
  NOAEL: 0.41 mg/kg/day
[15]
  LEL: 3.64 mg/kg/day
  LOAEL: 3.64 mg/kg/day
  NEL: 0.76 mg/kg/day
  NOAEL: 0.76 mg/kg/day
[16]; systemic / in life observation / body weight / body weight + systemic / in life observation / body weight / body weight gain
  LOAEL: 132 mg/kg/day
[16]; [34]
  LEL: 132 mg/kg/day
  NEL: 5.3 mg/kg/day
  NOAEL: 5.3 mg/kg/day
[17]; group: developmental, developmental / developmental malformation / other / other + systemic / in life observation / body weight / fetal weight
  LOAEL: 200 mg/kg/day
[17]; [35]
  LEL: 200 mg/kg/day
  NEL: 75 mg/kg/day
  NOAEL: 75 mg/kg/day
[17]; [36]
  LOAEL: 75 mg/kg/day
  NOAEL: 5 mg/kg/day
[17]; [37]
  LEL: 5 mg/kg/day
  NEL: < 5 mg/kg/day
